# Source: patent publication US9216166B2, “Anti-microbial photodynamic therapy” (Biolitec Pharma Marketing, Ltd, priority 2006, dated 2015)
# Key:
# Type in all cases: cell-based
# [1] = system: Staphylococcus aureus, Pseudomonas aeruginosa and Escherichia coli; assay: Photodynamic inactivation of bacteria with Safranin O (FIG. 1)
# Description: (§1) One of the major problems for the use of anti-microbial PDT is a blocking action of the components of the blood whose presence decreases the activity of photosensitizers.
# (§2) The antibacterial effect strongly depends on the kind of bacterial cells.
# (§3) FIG. 1, Graph showing photodynamic inactivation of Staphylococcus aureus DSM1104 (FIG. 1A), Pseudomonas aeruginosa DSM1 117 (FIG. 1B), and Escherichia coli DSM8698 (FIG. 1C) by treatment with Safranin O as a photo sensitizer.
# [2] = system: Escherichia coli DSM8698; assay: Photodynamic inactivation of Escherichia coli with Safranin O (FIG. 1C); settings: compared with Staphylococcus aureus
# Description: as §1, §2, §3
# [3] = system: Pseudomonas aeruginosa DSM1117; assay: Photodynamic inactivation of Pseudomonas aeruginosa with Safranin O (FIG. 1B)
# Description: as §1, §2, §3
# [4] = system: Staphylococcus aureus DSM1104; assay: Photodynamic inactivation of Staphylococcus aureus with Safranin O (FIG. 1A)
# Description: as §1, §2, §3
# [5] = system: Gram-positive and Gram-negative bacteria; assay: Photodynamic inactivation of bacterial cell suspension using photosensitizers 1, 3a-e (CFU/ml after 665 nm laser irradiation); settings: in the presence of blood (PBS with 10% human blood), 30 min incubation, about 100 J/cm^2, FIG. 2
# Procedure: In the preferred embodiment, the antibacterial treatment includes the administration of photosensitizers to an environment containing bacteria and is allowed to incubate for a sufficient period of time thus providing accumulation of the photosensitizer into the bacterial cells. The incubation time varies depending on many factors. In this experiment it is incubated for 30 min before being irradiated with 665 nm laser at 100 J/cm^2 to initiate photodestruction of bacterial cells. The photosensitizer can be administered either by systemic application, or local injection in the affected area. For infection on or near the skin it can be administered topically.
# The organisms used in our studies were three members of the microflora of wounds: Staphylococcus aureus DSM1104, Gram-positive; Escherichia coli DSM8698, Gram-negative; Pseudomonas aeruginosa DSM1117, Gram-negative.
# Cultured cells are suspended in sterile phosphate-buffered saline (PBS) or sterile PBS supplemented with 10% sterile horse blood serum, 10% human plasma or 10% human blood respectively. The final OD (Optical Density) at 600 nm, 1 cm in all cases was 0.03. The bacterial suspensions are placed into sterile black well plates with clear bottoms. […]
SMILES,bactericidal photodynamic activity ([1]; in PBS buffer),change of bactericidal photodynamic activity ([1]; when blood serum or blood is added),susceptibility of Gram-negative cells of Escherichia coli to killing by PDT [2],"effect of added serum, plasma or blood on photodynamic activity against Pseudomonas aeruginosa ([3]; addition of 10% of horse serum or human plasma or whole blood)","susceptibility of Gram-negative cells of Pseudomonas aeruginosa to killing by PDT ([3]; compared with Staphylococcus aureus, FIG. 1)",killing of Gram-positive cells of Staphylococcus aureus by PDT [4],photodynamic activity against Gram-positive and Gram-negative bacteria [5]
Cc1cc2nc3cc(C)c(N)cc3[n+](-c3ccccc3)c2cc1N.[Cl-] [Safranin O],high bactericidal photodynamic activity,decreased remarkably,more resistant to killing by PDT,practically block the photodynamic activity,more resistant to killing by PDT,could be killed sufficiently,–
"CCC1=C(C)c2cc3[nH]c(cc4nc(c5c6[nH]c(cc1n2)c(C)c6C(=O)C5)[C@@H](CCC(=O)O)C4C)c(C)c3CC (stereo partly drawn) [compound 1, meso pyropheophorbide-a]",–,–,–,–,–,–,not active
